PMC12406652 (Antimicrobial Agents and Chemotherapy, 2025)

System: healthy participants
Assay: Safety and tolerability (treatment-emergent adverse events), studies VNRX-7145-101 and VNRX-7145-102
Format: in vivo, human
Protocol: Safety was assessed via ongoing monitoring of adverse events, symptom-directed physical examinations, and changes in clinical laboratory measures, vital signs, and ECGs.

## CCC(=O)N[C@H]1Cc2cccc(C(=O)OCOC(=O)C(CC)CC)c2OB1O [Ledaborbactam etzadroxil]
LED-E-dosed participants
  Participants with fatigue (TEAE): 9.2%
  Participants with headache (TEAE): 20.2%
All dose levels, alone or in combination with CTB
  Tolerability: well tolerated
N = 109, pooled studies, all mild
  Participants with gastrointestinal TEAEs: 27.5%
Single or multiple doses, alone or with CTB
  Serious or severe TEAEs: no serious or severe TEAEs
